The values below come from US20240344035A1, “Culture Medium and Culture Method for Human Primary Acute Myeloid Leukemia Cells” (PRECEDO PHARMACEUTICALS CO., LTD, priority 2021, published 2024).

Format in all cases: cell-based
For assay [1], the system named is human primary acute myeloid leukemia cells. As to the kind of experiment: Effect of single added factors in Basal Medium on proliferation (CCK-8). The following applies: additive at the listed final concentration in Basal Medium; samples A17007, A25104; 5 to 8 days; CCK-8, 450 nm; versus Basal Medium. On the procedure: First, the Basal Medium was prepared. The formulation of the Basal Medium was monocyte serum-free medium (purchased from BI, 05-080-1A)+10% (v/v) fetal bovine serum (purchased from ExCell Bio, FND500)+100 μg/mL Primocin (purchased from InvivoGen, 0.2% (v/v), the commercial product concentration is 50 mg/mL).
Different types of growth factors (see Table 1) were added to the Basal Medium to prepare culture mediums for human primary acute myeloid leukemia cells containing different added components.
The culture mediums of different compositions in Table 1 were added into a 96-well plate in a volume of 100 μL/well. Human primary acute myeloid leukemia cells isolated from two cases of human primary acute myeloid leukemia bone marrow samples (numbered A17007, A25104, from the First Affiliated Hospital of Anhui Medical University) according to the above step (2) were inoculated in the 96-well culture plate at a density of 1×10^4 cells/well and cultured at 37° C. and 5% […]. After 5 to 8 days of culture, the cells grew to 70% to 85%, and 10 μL of Cell Counting Kit-8 (CCK-8, purchased from MCE) was added to each well and incubated at 37° C. and 5% CO2 for 2 to 4 hours. The substances in each well were mixed, and the plate was read using a multifunctional microplate reader (Multi-Mode Detection Platform, American Molecular Instruments (Shanghai) Co., Ltd.) at 450 nm. The Basal Medium without addition of any additive was used as a control.

Assay [2] shares this test system. As to the kind of experiment: Proliferative effects of different concentrations of added factors (ratio to Blank Control, FIGS. 2A-2H). The settings on record: for concentration at which the cell proliferation effect is most significant: five concentrations tested; for proliferation-promoting effect of the factor: samples A23065, A17112, factor added back to formulation lacking it. On the procedure: Human primary acute myeloid leukemia cells were obtained from human primary acute myeloid leukemia bone marrow samples (numbered A23065, A17112) according to the process of step (2)-3 of Example 1. The cells were resuspended with Basal Medium (monocyte serum-free medium+10% (v/v) fetal bovine serum+100 μg/mL Primocin) for later use.
20 μl of cell suspension containing 4×10^4 cells was added to each well, and the suspension was diluted with 1 mL medium of the above Formulations 1-8, respectively.
When using the culture medium of Formulation 1, the prepared glutamine additive was added respectively to a 48-well plate inoculated with primary cells, with 1 mL per well, and the final concentration of glutamine additive was 0.5 mM, 1 mM, 2 mM, 4 mM, 8 mM, respectively; a well of Blank Control (BC) was set using the culture medium of Formulation 1.
When using the culture medium of Formulation 2, the prepared human SCF was added respectively to a 48-well plate inoculated with primary cells, with 1 mL per well, and the final concentration of human SCF was 1 ng/mL, 3 ng/mL, 9 ng/mL, 27 ng/mL, 81 ng/mL, respectively; a well of Blank Control (BC) was set using the culture medium of Formulation 2.
When using the culture medium of Formulation 5, the prepared human FLT3L was added respectively to a 48-well plate inoculated with primary cells, with 1 mL per well, and the final concentration of human FLT3L was 1 ng/mL, 3 ng/mL, 9 ng/mL, 27 ng/mL, 81 ng/mL, respectively; a well of Blank Control (BC) was set using the culture medium of Formulation 5.
When using the culture medium of Formulation 6, the prepared non-essential amino acids were added respectively to a 48-well plate inoculated with primary cells, with 1 mL per well, and the final concentration of non-essential amino acids was 12.5 µM, 25 µM, 50 µM, 100 µM, 200 µM, respectively; a well of Blank Control (BC) was set using the culture medium of Formulation 6.
When using the culture medium of Formulation 8, the prepared human M-CSF was added respectively to a 48-well plate inoculated with primary cells, with 1 mL per well, and the final concentration of human M-CSF was 1 ng/mL, 3 ng/mL, 9 ng/mL, 27 ng/mL, 81 ng/mL, respectively; a well of Blank Control (BC) was set using the culture medium of Formulation 8.
In FIGS. 2A to 2H, the ratio is a ratio of the number of cells of the first passage cultured by using each culture medium to the number of cells of the first passage cultured in the corresponding well of Blank Control.

Assay [3] shares this test system. As to the kind of experiment: Effect of combinations of added factors on proliferation (viable cell counting, FIG. 1). The settings on record: six bone marrow samples. On the procedure:
The culture mediums for human primary acute myeloid leukemia cells containing different combinations of added factors were prepared according to the components in Table 2, to investigate the proliferation-promoting effects of different added factor combinations on human primary acute myeloid leukemia cells.
Human primary acute myeloid leukemia cells were obtained from human primary acute myeloid leukemia bone marrow samples (numbered A17151, A17152, A20090, A20101, A21004, A20141) according to the process of step (2)-3 of Example 1. The obtained cell suspension was divided into 11 equal parts, which were then centrifuged at 1500 rpm for 4 minutes. After centrifugation, the cells were resuspended with 200 μL BM or No. 1 to 10 culture medium, respectively, and inoculated into a 48-well plate at a viable cell density of 2×10^4 cells/well (20,000 cells per well). Each well in the 48-well plate was supplemented to a volume of 1 mL with the corresponding culture mediums, and the resultant was fully mixed. After surface disinfection, the plate was placed in a 37° C., 5% CO2 incubator (purchased from Thermo Fisher) for culture.
The cells in the 48-well plate grew to more than 85% and were transferred to a 15 mL centrifuge tube which was then centrifuged at 1500 rpm for 5 minutes. 500 μL of monocyte serum-free medium was added to the centrifuge tube to resuspend the cell pellet. 12 μL of the resuspended cell suspension was fully mixed with 12 μL of trypan blue dye (Sangon Biotech (Shanghai) Co., Ltd.), and then 20 μL of the mixture was added into a cell counting plate (Countstar, specifications: 50 pieces/box). The percentage of viable large cells (cell size>10 μm) were calculated using a cell counter (Countstar, IC1000) (percentage of viable large cells (cell size>10 μm)=number of viable cells/total number of cells*100%). The results obtained from human primary acute myeloid leukemia cells of bone marrow samples A17151, A17152, A20090, A20101, A21004, and A20141 are shown in FIG. 1.

`C[C@@H](N)[C@H]1CC[C@H](C(=O)Nc2ccncc2)CC1` [Y-27632, reference compound]: the “Level of promoting cell proliferation” value in assay [1] is given as “−”.

As to human interleukin-5 [human IL-5], the “Level of promoting cell proliferation” value in assay [1] is “−”.

Consider human interleukin-6 [human IL-6], for which, in assay [2], the “concentration at which the cell proliferation effect is most significant” value is reported as 5.67 ng/mL and the “proliferation-promoting effect of the factor” value is “significant proliferation-promoting effect”. Further, the “proliferation-promoting effect of the factor (omission from No. 1 medium)” value in assay [3] was “significantly promote the proliferation”. Besides, the “Level of promoting cell proliferation” value in assay [1] was “+”.

In the case of human interleukin-7 [human IL-7], in assay [2], the “concentration at which the cell proliferation effect is most significant” value is listed as 17 ng/mL and the “proliferation-promoting effect of the factor” value is given as “significant proliferation-promoting effect”. Further, the “proliferation-promoting effect of the factor (omission from No. 1 medium)” value in assay [3] was “significantly promote the proliferation”. In addition, in assay [1], the “Level of promoting cell proliferation” value is reported as “+”.

In the case of “human leukocyte interferon [human IFN-α]”, the “Level of promoting cell proliferation” value in assay [1] is recorded as “+”.

As for human stem cell factor [human SCF], in assay [2], the “concentration at which the cell proliferation effect is most significant” value was 9 ng/mL and the “proliferation-promoting effect of the factor” value is “significant proliferation-promoting effect”. Also, in assay [3], the “proliferation-promoting effect of the factor (omission from No. 1 medium)” value is “significantly promote the proliferation”. For the same molecule, the “Level of promoting cell proliferation” value in assay [1] is reported as “+”.

In the case of human thrombopoietin [human TPO], the “Level of promoting cell proliferation” value in assay [1] was “−”.

B1: human interleukin-22 (protein, UniProt Q9GZX6 34-179, looked up)
Interleukin-22: APISSHCRLDKSNFQQPYITNRTFMLAKEASLADNNTDVRLIGEKLFHGVSMSERCYLMKQVLNFTLEEVLFPQSDRFQPYMQEVVPFLARLSNRLSTCHIEGDDLHIQRNVQKLKDTVKKLGESGEIKAIGELDLLFMSLRNACI
notes: cytokine additive from Peprotech
With B1, in assay [1], the “Level of promoting cell proliferation” value is “−”.

B2: human granulocyte colony stimulating factor (protein, UniProt P09919 31-207, looked up)
Granulocyte …: TPLGPASSLPQSFLLKCLEQVRKIQGDGAALQEKLVSECATYKLCHPEELVLLGHSLGIPWAPLSSCPSQALQLAGCLSQLHSGLFLYQGLLQALEGISPELGPTLDTLQLDVADFATTIWQQMEELGMAPALQPTQGAMPAFASAFQRRAGGVLVASHLQSFLEVSYRVLRHLAQP
notes: growth factor additive from Sino Biological
On to B2, for which the “Level of promoting cell proliferation” value in assay [1] is reported as “−”.

B3: recombinant human macrophage colony-stimulating factor (protein, UniProt P09603 33-554, looked up)
Macrophage colony-stimulating …: EEVSEYCSHMIGSGHLQSLQRLIDSQMETSCQITFEFVDQEQLKDPVCYLKKAFLLVQDIMEDTMRFRDNTPNAIAIVQLQELSLRLKSCFTKDYEEHDKACVRTFYETPLQLLEKVKNVFNETKNLLDKDWNIFSKNCNNSFAECSSQDVVTKPDCNCLYPKAIPSSDPASVSPHQPLAPSMAPVAGLTWEDSEGTEGSSLLPGEQPLHTVDPGSAKQRPPRSTCQSFEPPETPVVKDSTIGGSPQPRPSVGAFNPGMEDILDSAMGTNWVPEEASGEASEIPVPQGTELSPSRPGGGSMQTEPARPSNFLSASSPLPASAKGQQPADVTGTALPRVGPVRPTGQDWNHTPQKTDHPSALLRDPPEPGSPRISSLRPQGLSNPSTLSAQPQLSRSHSSGSVLPLGELEGRRSTRDRRSPAEPEGGPASEGAARPLPRFNSVPLTDTGHERQSEGSFSPQLQESVFHLLVPSVILVLLAVGGLLFYRWRRRSHQEPQRADSPLEQPEGSPLTQDDRQVELPV
notes: as for B2
B3: in assay [2], the “concentration at which the cell proliferation effect is most significant” value was found to be 27 ng/mL and the “proliferation-promoting effect of the factor” value is listed as “significant proliferation-promoting effect”. For the same molecule, the “proliferation-promoting effect of the factor (omission from No. 1 medium)” value in assay [3] is listed as “significantly promote the proliferation”. Further, the “Level of promoting cell proliferation” value in assay [1] was “+”.

B4: human interleukin-10 (protein, UniProt P22301 19-178, looked up)
Interleukin-10: SPGQGTQSENSCTHFPGNLPNMLRDLRDAFSRVKTFFQMKDQLDNLLLKESLLEDFKGYLGCQALSEMIQFYLEEVMPQAENQDPDIKAHVNSLGENLKTLRLRLRRCHRFLPCENKSKAVEQVKNAFNKLQEKGIYKAMSEFDIFINYIEAYMTMKIRN
notes: cytokine additive from Sino Biological
B4: the “Level of promoting cell proliferation” value in assay [1] was “−”.

B5: recombinant human FLT3 Ligand (protein, UniProt P49771 27-235, looked up)
Fms-related tyrosine kinase 3 …: TQDCSFQHSPISSDFAVKIRELSDYLLQDYPVTVASNLQDEELCGGLWRLVLAQRWMERLKTVAGSKMQGLLERVNTEIHFVTKCAFQPPPSCLRFVQTNISRLLQETSEQLVALKPWITRQNFSRCLELQCQPDSSTLPPPWSPRPLEATAPTAPQPPLLLLLLLPVGLLLLAAAWCLHWQRTRRRTPRPGEQVPPVPSPQDLLLVEH
notes: as for B2
For B5, in assay [2], the “concentration at which the cell proliferation effect is most significant” value was determined as 27 ng/mL and the “proliferation-promoting effect of the factor” value is “significant proliferation-promoting effect”. Moreover, the “proliferation-promoting effect of the factor (omission from No. 1 medium)” value in assay [3] was “significantly promote the proliferation”. Further, the “Level of promoting cell proliferation” value in assay [1] was “+”.

B6: human interleukin-4 (protein, UniProt P05112 25-153, looked up)
Interleukin-4: HKCDITLQEIIKTLNSLTEQKTLCTELTVTDIFAASKNTTEKETFCRAATVLRQFYSHHEKDTRCLGATAQQFHRHKQLIRFLKRLDRNLWGLAGLNSCPVKEANQSTLENFLERLKTIMREKYSKCSS
notes: as for B4
Take B6: the “Level of promoting cell proliferation” value in assay [1] is “−”.

B7: human interleukin-11 (protein, UniProt P20809 22-199, looked up)
Interleukin-11: PGPPPGPPRVSPDPRAELDSTVLLTRSLLADTRQLAAQLRDKFPADGDHNLDSLPTLAMSAGALGALQLPGVLTRLRADLLSYLRHVQWLRRAGGSSLKTLEPELGTLQARLDRLLRRLQLLMSRLALPQPPPDPPAPPLAPPSSAWGGIRAAHAILGGLHLTLDWAVRGLLLLKTRL
notes: as for B4
For B7, in assay [1], the “Level of promoting cell proliferation” value is listed as “−”.
